Like-named read-outs stand apart in the source and are kept apart here.
Biological target: T1, rat brain N-type calcium channel subunits (α1B+α2δ+β1b cDNA subunits) (Rattus norvegicus, UniProt Q02294)
T1 construct: expressed in transfected cells; host or cells: HEK 293
Test: N-type calcium channel block, whole cell patch clamp in transfected HEK 293 cells
Assay type: cell-based
Description: N-type calcium channel blocking activity was assayed in human embryonic kidney cells, HEK 293, stably transfected with the rat brain N-type calcium channel subunits (α1B+α2δ+β1b cDNA subunits). Alternatively, N-type calcium channels (α1B+α2δ+β1b cDNA subunits), L-type channels (α1C+α2δ+β1b cDNA subunits) and P/Q-type channels (α1A+α2δ+β1b cDNA subunits) were transiently expressed in HEK 293 cells. Briefly, cells were cultured in Dulbecco's modified eagle medium (DMEM) supplemented with 10% fetal bovine serum, 200 U/ml penicillin and 0.2 mg/ml streptomycin at 37° C. with 5% CO2. At 85% confluency cells were split with 0.25% trypsin/1 mM EDTA and plated at 10% confluency on glass coverslips. At 12 hours the medium was replaced and the cells transiently transfected using a standard calcium phosphate protocol and the appropriate calcium channel cDNA's. Fresh DMEM was supplied and the cells transferred to 28° C./5% CO2. Cells were incubated for 1 to 2 days prior to whole cell recording.
Whole cell patch clamp experiments were performed using an Axopatch 200B amplifier (Axon Instruments, Burlingame, Calif.) linked to a personal computer equipped with pCLAMP software. The external and internal recording solutions contained, respectively, 5 mM BaCl2, 10 mM MgCl2, 10 mM HEPES, 40 mM TEACl, 10 mM glucose, 87.5 mM CsCl (pH 7.2) and 108 mM CsMS, 4 mM MgCl2, 9 mM EGTA, 9 mM HEPES (pH 7.2). Currents were typically elicited from a holding potential of −80 mV to +10 mV using Clampex software (Axon Instruments). Typically, currents were first elicited with low frequency stimulation (0.067 Hz) and allowed to stabilize prior to application of the compounds. The compounds were then applied during the low frequency pulse trains for two to three minutes to assess tonic block, and subsequently the pulse frequency was increased to 0.2 Hz to assess frequency dependent block. Data were analyzed using Clampfit (Axon Instruments) and SigmaPlot 4.0 (Jandel Scientific).

[1] = −50 mV, read-out: IC50 @ −50 mV
[2] = −80 mV, read-out: IC50 @ −80 mV

T1 sequence (Q02294 whole entry): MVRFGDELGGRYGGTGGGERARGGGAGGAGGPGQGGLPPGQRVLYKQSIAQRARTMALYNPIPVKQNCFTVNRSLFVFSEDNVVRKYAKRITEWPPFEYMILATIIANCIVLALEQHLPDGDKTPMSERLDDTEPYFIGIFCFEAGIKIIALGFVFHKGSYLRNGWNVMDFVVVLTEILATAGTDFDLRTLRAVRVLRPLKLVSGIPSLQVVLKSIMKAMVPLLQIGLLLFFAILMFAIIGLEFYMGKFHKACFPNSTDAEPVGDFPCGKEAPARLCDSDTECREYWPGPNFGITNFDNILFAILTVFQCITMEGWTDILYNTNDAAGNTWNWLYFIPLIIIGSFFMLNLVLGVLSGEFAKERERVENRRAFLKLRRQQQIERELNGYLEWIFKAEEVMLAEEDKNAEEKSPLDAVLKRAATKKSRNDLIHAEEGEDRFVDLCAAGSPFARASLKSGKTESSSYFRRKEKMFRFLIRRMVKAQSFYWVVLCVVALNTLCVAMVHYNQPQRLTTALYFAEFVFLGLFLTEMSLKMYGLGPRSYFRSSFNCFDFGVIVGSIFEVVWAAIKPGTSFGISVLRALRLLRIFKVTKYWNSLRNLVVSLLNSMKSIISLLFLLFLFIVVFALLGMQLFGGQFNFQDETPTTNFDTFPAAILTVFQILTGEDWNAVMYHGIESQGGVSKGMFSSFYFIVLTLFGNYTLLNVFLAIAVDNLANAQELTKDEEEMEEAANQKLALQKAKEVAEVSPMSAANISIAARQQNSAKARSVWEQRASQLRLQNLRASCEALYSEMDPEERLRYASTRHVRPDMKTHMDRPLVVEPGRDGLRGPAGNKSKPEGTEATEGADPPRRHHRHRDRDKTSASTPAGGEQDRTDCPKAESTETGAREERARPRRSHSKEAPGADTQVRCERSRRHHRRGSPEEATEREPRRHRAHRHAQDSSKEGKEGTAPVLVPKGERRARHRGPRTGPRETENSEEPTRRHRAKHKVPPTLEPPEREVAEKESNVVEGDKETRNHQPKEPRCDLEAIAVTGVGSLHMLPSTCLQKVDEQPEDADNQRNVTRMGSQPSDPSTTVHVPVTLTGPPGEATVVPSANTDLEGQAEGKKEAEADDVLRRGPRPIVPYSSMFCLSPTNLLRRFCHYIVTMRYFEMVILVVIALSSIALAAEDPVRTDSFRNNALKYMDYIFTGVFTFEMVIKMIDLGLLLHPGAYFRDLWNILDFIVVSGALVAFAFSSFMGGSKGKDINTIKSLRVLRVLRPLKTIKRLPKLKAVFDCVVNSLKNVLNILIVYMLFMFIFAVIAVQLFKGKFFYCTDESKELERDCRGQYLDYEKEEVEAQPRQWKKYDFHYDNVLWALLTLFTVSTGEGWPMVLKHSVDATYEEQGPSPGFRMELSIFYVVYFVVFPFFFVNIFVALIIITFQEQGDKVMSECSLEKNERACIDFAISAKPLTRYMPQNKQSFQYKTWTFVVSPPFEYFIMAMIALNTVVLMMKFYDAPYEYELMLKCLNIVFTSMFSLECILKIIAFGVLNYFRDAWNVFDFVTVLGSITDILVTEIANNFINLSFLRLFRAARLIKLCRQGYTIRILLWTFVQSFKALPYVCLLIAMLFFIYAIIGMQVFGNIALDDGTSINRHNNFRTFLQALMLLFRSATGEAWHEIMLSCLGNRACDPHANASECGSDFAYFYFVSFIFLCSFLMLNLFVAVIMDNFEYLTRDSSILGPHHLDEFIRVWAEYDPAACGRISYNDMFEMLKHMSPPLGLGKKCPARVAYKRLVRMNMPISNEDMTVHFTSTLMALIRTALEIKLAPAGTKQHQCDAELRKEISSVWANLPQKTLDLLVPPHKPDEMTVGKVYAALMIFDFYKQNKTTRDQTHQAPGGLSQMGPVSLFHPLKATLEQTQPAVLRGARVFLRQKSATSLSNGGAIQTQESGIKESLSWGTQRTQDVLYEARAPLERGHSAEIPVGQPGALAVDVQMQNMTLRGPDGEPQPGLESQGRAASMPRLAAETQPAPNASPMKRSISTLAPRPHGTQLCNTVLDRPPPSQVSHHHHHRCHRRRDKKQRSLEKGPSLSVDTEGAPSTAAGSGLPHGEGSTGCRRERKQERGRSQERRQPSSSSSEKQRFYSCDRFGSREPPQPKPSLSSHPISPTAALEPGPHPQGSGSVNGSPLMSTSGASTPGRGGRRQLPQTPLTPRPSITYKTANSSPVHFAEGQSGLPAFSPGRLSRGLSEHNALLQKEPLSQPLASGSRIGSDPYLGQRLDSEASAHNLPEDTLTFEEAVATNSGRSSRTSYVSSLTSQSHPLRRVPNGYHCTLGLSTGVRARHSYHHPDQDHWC
T1 sequence (P54290 25-944 partner limits assumed): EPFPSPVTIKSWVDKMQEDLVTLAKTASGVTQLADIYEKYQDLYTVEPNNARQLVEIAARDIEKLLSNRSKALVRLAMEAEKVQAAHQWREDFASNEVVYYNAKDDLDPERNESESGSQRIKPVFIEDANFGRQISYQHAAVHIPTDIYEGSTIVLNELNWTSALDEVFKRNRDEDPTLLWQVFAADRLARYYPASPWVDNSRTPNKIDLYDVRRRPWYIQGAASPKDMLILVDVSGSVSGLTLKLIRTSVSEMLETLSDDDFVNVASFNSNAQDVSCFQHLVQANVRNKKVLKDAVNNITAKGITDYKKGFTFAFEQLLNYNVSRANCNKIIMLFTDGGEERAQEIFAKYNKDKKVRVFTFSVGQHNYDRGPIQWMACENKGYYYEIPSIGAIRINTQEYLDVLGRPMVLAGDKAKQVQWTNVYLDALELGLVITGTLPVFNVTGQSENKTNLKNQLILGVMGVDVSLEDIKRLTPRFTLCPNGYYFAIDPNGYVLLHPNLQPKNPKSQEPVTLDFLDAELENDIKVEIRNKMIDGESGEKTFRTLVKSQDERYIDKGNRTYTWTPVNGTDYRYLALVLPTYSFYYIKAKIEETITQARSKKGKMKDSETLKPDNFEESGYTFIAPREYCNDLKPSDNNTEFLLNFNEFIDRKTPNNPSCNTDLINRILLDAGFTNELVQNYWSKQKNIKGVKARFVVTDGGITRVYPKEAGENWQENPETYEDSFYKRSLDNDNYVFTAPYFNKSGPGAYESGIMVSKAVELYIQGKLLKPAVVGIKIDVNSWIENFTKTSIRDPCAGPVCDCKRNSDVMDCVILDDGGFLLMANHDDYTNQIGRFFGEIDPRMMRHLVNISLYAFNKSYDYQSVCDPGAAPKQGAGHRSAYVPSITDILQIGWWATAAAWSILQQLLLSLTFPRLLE
T1 sequence (P54290 945-1091 partner limits assumed): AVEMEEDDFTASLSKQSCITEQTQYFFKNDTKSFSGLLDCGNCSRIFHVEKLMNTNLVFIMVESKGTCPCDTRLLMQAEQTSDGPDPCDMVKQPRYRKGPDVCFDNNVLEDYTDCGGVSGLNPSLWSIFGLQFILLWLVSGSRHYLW
T1 sequence (P54283 whole entry partner): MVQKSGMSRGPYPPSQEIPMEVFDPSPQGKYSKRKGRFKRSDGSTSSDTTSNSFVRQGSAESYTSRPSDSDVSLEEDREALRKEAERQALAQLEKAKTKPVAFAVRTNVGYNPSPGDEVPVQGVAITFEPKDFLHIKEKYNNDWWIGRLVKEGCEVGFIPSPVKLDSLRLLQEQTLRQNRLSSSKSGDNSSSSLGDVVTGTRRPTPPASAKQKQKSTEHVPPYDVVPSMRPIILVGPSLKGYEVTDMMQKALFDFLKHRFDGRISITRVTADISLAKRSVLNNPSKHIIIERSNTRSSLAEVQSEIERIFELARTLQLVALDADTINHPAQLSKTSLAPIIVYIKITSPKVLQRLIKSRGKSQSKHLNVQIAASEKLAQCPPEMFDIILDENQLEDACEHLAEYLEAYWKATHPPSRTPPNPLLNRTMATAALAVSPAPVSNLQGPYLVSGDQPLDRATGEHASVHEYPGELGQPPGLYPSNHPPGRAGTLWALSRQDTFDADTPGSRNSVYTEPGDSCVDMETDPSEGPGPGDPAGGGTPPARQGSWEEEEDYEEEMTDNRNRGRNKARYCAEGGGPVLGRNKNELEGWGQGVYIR

| SMILES | IC50 [1] [nM] | IC50 [2] [nM] |
| --- | --- | --- |
| CS(=O)(=O)c1ccc2nc(NC(=O)CN3CCN(C(c4ccccc4)c4ccccc4)CC3)sc2c1 [Compound 20, 2-(4-benzhydrylpiperazin-1-yl)-N-(6-mesylbenzo[d]thiazol-2-yl)acetamide] | 1640 | 3130 |
| Cc1ccc(-c2csc(NC(=O)CN3CCN(C(c4ccc(F)cc4)c4ccc(F)cc4)CC3)n2)cc1 [Compound 10, 2-(4-(bis(4-fluorophenyl)methyl)piperazin-1-yl)-N-(4-p-tolylthiazol-2-yl)acetamide] | 1910 | 3540 |
| Cc1ccc(-c2csc(NC(=O)CN3CCN(C(c4ccccc4)c4ccccc4)CC3)n2)cc1 [Compound 9, 2-(4-benzhydrylpiperazin-1-yl)-N-(4-p-tolylthiazol-2-yl)acetamide] | 2500 | 6400 |
| O=C(CN1CCN(C(c2ccc(F)cc2)c2ccc(F)cc2)CC1)Nc1nc2ccc(Cl)cc2s1 [Compound 12, 2-(4-(bis(4-fluorophenyl)methyl)piperazin-1-yl)-N-(6-chlorobenzo[d]thiazol-2-yl)acetamide] | 2560 | 4580 |
| O=C(CN1CCN(C(c2ccc(F)cc2)c2ccc(F)cc2)CC1)Nc1nccs1 [Compound 4, 2-(4-(bis(4-fluorophenyl)methyl)piperazin-1-yl)-N-(thiazol-2-yl)acetamide] | 1200 | 3400 |
| O=C(CN1CCN(C(c2ccccc2)c2ccccc2)CC1)Nc1nc2ccc(Cl)cc2s1 [Compound 11, 2-(4-benzhydrylpiperazin-1-yl)-N-(6-chlorobenzo[d]thiazol-2-yl)acetamide] | 1600 | 3400 |
| O=C(CN1CCN(C(c2ccccc2)c2ccccc2)CC1)Nc1nc2ccc(OC(F)(F)F)cc2s1 [Compound 18, 2-(4-benzhydrylpiperazin-1-yl)-N-(6-trifluoromethoxybenzo[d]thiazol-2-yl)acetamide] | 1160 | 2900 |
| COc1ccc2nc(NC(=O)CN3CCN(C(c4ccccc4)c4ccccc4)CC3)sc2c1 [Compound 19, 2-(4-benzhydrylpiperazin-1-yl)-N-(6-methoxybenzo[d]thiazol-2-yl)acetamide] | 1540 | 3160 |

These reach a lower IC50 [1]. Values come first.

| IC50 [1] [nM] | IC50 [2] [nM] | SMILES |
| --- | --- | --- |
| 400 | 770 | O=C(CN1CCN(C(c2ccccc2)c2ccccc2)CC1)Nc1nc2ccc(F)cc2s1 [Compound 1, 2-(4-benzhydrylpiperazin-1-yl)-N-(6-fluorobenzo[d]thiazol-2-yl)acetamide] |
| 780 | 1950 | Cc1cnc(NC(=O)CN2CCN(C(c3ccccc3)c3ccccc3)CC2)s1 [Compound 5, 2-(4-benzhydrylpiperazin-1-yl)-N-(5-methylthiazol-2-yl)acetamide] |
| 490 | 920 | O=C(CN1CCN(C(c2ccc(F)cc2)c2ccc(F)cc2)CC1)Nc1nc2ccc(F)cc2s1 [Compound 2, 2-(4-(bis(4-fluorophenyl)methyl)piperazin-1-yl)-N-(6-fluorobenzo[d]thiazol-2-yl)acetamide] |
| 530 | 1040 | O=C(CN1CCN(C(c2ccc(F)cc2)c2ccc(F)cc2)CC1)Nc1ncc(Cl)s1 [Compound 8, 2-(4-(bis(4-fluorophenyl)methyl)piperazin-1-yl)-N-(5-chlorothiazol-2-yl)acetamide] |
| 600 | 1210 | O=C(CN1CCN(C(c2ccccc2)c2ccccc2)CC1)Nc1nc2ccccc2s1 [Compound 16, 2-(4-benzhydrylpiperazin-1-yl)-N-(benzo[d]thiazol-2-yl)acetamide] |
| 530 | 2530 | O=C(CN1CCN(C(c2ccc(F)cc2)c2ccc(F)cc2)CC1)Nc1nc2ccccc2s1 [Compound 17, N-(benzo[d]thiazol-2-yl)-2-(4-(bis(4-fluorophenyl)methyl)piperazin-1-yl)acetamide] |
| 250 | 290 | O=C(CN1CCN(C(c2ccccc2)c2ccccc2)CC1)Nc1nc2ccccc2[nH]1 [Compound 14, 2-(4-benzhydrylpiperazin-1-yl)-N-(1H-benzo[d]imidazol-2-yl)acetamide] |
